Entries after “also recorded” stand apart in the source; their conditions may differ.
How the values were obtained:
GPRC6A = details: cited from earlier work
From the text: Additional interest in GPRC6A has emerged due to several studies reporting that it mediates the metabolic and endocrine effects of the de-carboxylated form of the osteoblast-derived peptide, osteocalcin (OCN).

mouse pancreatic islets = test: Insulin release from mouse pancreatic islets; format: cell-based; details: OCN 0.03–100 ng/ml; both glucose concentrations; 90 min; n = 2; S3 Fig B
Protocol: Islets were collagenase-isolated from mice (10 x C57Bl/6; 12–13 weeks; Charles River) and incubated overnight in RPMI (with 10% FBS (v/v), 10 mM HEPES, 100 U/ml penicillin, 100 μg/ml streptomycin, sodium pyruvate and 10 mM glucose) at 37°C in 5% CO2. Islets were seeded into a 96-well plate (4 / well) in Kreb’s buffer containing 2.8 mM glucose and washed twice with the same buffer. 200 μl test drugs were added in Kreb’s buffer with the required concentration of glucose and incubated at 37°C in 5% CO2 for 90 min. The plate was centrifuged for 10 s at 200 g, supernatant recovered and insulin levels detected as described above. This protocol was approved by the IDRS (Institut de Recherches Servier) Institutional Animal Care and Use Committee.
Concentration-response data were analysed using a three or four parameter logistic function (Motulsky & Christopoulos, 2004) to generate estimates of agonist potency (LogEC50). Data for all HEK293 assays represent the mean ± SEM of at least three independent experiments (except cell impedance, n = 2). For GLP-1 release, the data represent mean ± SEM of three to five independent experiments (except for OCN, wash; n = 2). For insulin release assays, data represent the mean ± SEM of three independent experiments (except for islet studies; n = 2). Insulin release data were normalised to the response to vehicle in either low or high [glucose]. Statistical analysis for GLP-1 release data were performed by one-way ANOVA, followed by Sidak’s multiple comparisons test (treating wash / no wash datasets separately). Statistical analyses for insulin release data were performed by two-way ANOVA (with [glucose] and drug treatment as group variables), followed by Sidak’s multiple comparisons test. Where only high [glucose] groups were evaluated, statistical analysis was by one-way ANOVA followed by Sidak’s multiple comparisons test.

βTC-6 cells = details: GPRC6A-dependent; ref [12]; cited from earlier work
From the text: (§1) Given the range of OCN variants profiled, we propose that species and/or carboxylation status is unlikely to be a cause of the lack of activity in our assays. Other potential explanations are that the species of GPRC6A is critical or that HEK293 cells lack the necessary scaffolding and/or signalling proteins found in cells endogenously expressing GPRC6A. Unfortunately, human GPRC6A was not expressed at the cell surface in our cells, precluding a study of its pharmacology. However, we identified a range of immortalised murine entero-endocrine and pancreatic β-cell lines that express Gprc6a mRNA ...

pancreatic islets = details: GPRC6A-dependent; ref [31]; cited from earlier work
From the text: as §1

In the case of “OCN: osteoblast-derived peptide, osteocalcin; variant not specified at the place (YLYQWLGAPVPYPDPLEPRREVCELNPDCDELADHIGFQEAYRRFYGPV; UniProt P02818 52-100, looked up)”, the cAMP accumulation (GPRC6A; GPRC6A-expressing cell lines or mouse pancreatic islets, ref [8], [30]) is given as “cAMP accumulation”, the “OCN concentration stimulating cAMP accumulation” value (GPRC6A; HEK293 transfected with GPRC6A, species not stated for receptor or peptide, ref [8]) is given as 3 ng/mL and the “OCN concentration promoting ERK1/2 phosphorylation” value (GPRC6A; approx., HEK293 cells expressing GPRC6A, species not stated, ref [10], [12]) is given as 40 to 80 ng/mL. The “insulin secretion, OCN” value (mouse pancreatic islets) was “no effect on insulin release; also recorded: failed to induce GSIS”, the ERK1/2 phosphorylation (βTC-6 cells) was “engender ERK1/2 phosphorylation” and the insulin secretion (pancreatic islets) was “increase insulin secretion from pancreatic islets”.
